Test results published in ChEMBL document CHEMBL1201862, “PubChem BioAssay data set” (2004).
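Cells were grown in 96-well plates and exposed to each compound for 48 hours at five concentrations; endpoints were interpolated linearly between bracketing concentrations, or set to the highest concentration if not reached. GI50 = concentration required for 50% inhibition of growth.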 Activity calls are given as the source filed them. Cut-off read from the data, not from the text of the source: active = GI50 up to about 1.1 µM and inactive = higher.

What was measured:
Test in all cases: NCI anticancer screen, dose series, 48 h
A498 = tested on: A498
A549 = tested on: A549
CAKI-1 = tested on: CAKI-1
CCRF-CEM = tested on: CCRF-CEM
COLO 205 = tested on: COLO 205
DLD-1 = tested on: DLD-1
DMS-273 = tested on: DMS-273
HCC 2998 = tested on: HCC 2998
HCT-116 = tested on: HCT-116
HCT-15 = tested on: HCT-15
HL-60 = tested on: HL-60
HOP-18 = tested on: HOP-18
HOP-62 = tested on: HOP-62
HOP-92 = tested on: HOP-92
HT-29 = tested on: HT-29
IGROV-1 = tested on: IGROV-1
K562 = tested on: K562
KM12 = tested on: KM12
LOX IMVI = tested on: LOX IMVI
M19-MEL = tested on: M19-MEL
MCF7 = tested on: MCF7
MOLT-4 = tested on: MOLT-4
Malme-3M = tested on: Malme-3M
NCI-H226 = tested on: NCI-H226
NCI-H23 = tested on: NCI-H23
NCI-H460 = tested on: NCI-H460
NCI-H522 = tested on: NCI-H522
NCI/ADR-RES = tested on: NCI/ADR-RES
OVCAR-3 = tested on: OVCAR-3
OVCAR-4 = tested on: OVCAR-4
OVCAR-5 = tested on: OVCAR-5
OVCAR-8 = tested on: OVCAR-8
RPMI-8226 = tested on: RPMI-8226
RXF 393 = tested on: RXF 393
SF-268 = tested on: SF-268
SF-295 = tested on: SF-295
SF-539 = tested on: SF-539
SK-MEL-28 = tested on: SK-MEL-28
SK-MEL-2 = tested on: SK-MEL-2
SK-MEL-5 = tested on: SK-MEL-5
SK-OV-3 = tested on: SK-OV-3
SN12C = tested on: SN12C
SNB-19 = tested on: SNB-19
SNB-75 = tested on: SNB-75
SNB-78 = tested on: SNB-78
SW-620 = tested on: SW-620
U-251 = tested on: U-251
UACC-257 = tested on: UACC-257
UACC-62 = tested on: UACC-62
UO-31 = tested on: UO-31
XF498 = tested on: XF498

Structure (SMILES): O=C(NC(Cc1ccc(Cl)cc1)C(=O)O)c1ccc(I)cc1 (stereo unspecified)
- GI50 (A498): > 100 µM (inactive)
- GI50 (A549): > 100 µM (inactive)
- GI50 (CAKI-1): > 100 µM (inactive)
- GI50 (CCRF-CEM): > 100 µM (inactive)
- GI50 (COLO 205): > 100 µM (inactive)
- GI50 (DLD-1): > 100 µM (inactive)
- GI50 (DMS-273): > 100 µM (inactive)
- GI50 (HCC 2998): 3.42 µM (inactive)
- GI50 (HCT-116): > 100 µM (inactive)
- GI50 (HCT-15): > 100 µM
- GI50 (HL-60): > 100 µM (inactive)
- GI50 (HOP-18): > 100 µM (inactive)
- GI50 (HOP-62): > 100 µM (inactive)
- GI50 (HOP-92): > 83.4 µM (inactive)
- GI50 (HT-29): > 100 µM (inactive)
- GI50 (IGROV-1): > 100 µM (inactive)
- GI50 (K562): > 100 µM (inactive)
- GI50 (KM12): > 100 µM (inactive)
- GI50 (LOX IMVI): > 100 µM (inactive)
- GI50 (M19-MEL): > 100 µM (inactive)
- GI50 (MCF7): > 67 µM (inactive)
- GI50 (MOLT-4): > 75.9 µM (inactive)
- GI50 (Malme-3M): > 100 µM (inactive)
- GI50 (NCI-H226): > 100 µM (inactive)
- GI50 (NCI-H23): > 100 µM (inactive)
- GI50 (NCI-H460): > 100 µM (inactive)
- GI50 (NCI-H522): > 83.2 µM (inactive)
- GI50 (NCI/ADR-RES): > 100 µM (inactive)
- GI50 (OVCAR-3): 76.7 µM (inactive)
- GI50 (OVCAR-4): > 100 µM (inactive)
- GI50 (OVCAR-5): > 100 µM (inactive)
- GI50 (OVCAR-8): > 100 µM (inactive)
- GI50 (RPMI-8226): 84.7 µM (inactive)
- GI50 (RXF 393): > 100 µM (inactive)
- GI50 (SF-268): > 100 µM (inactive)
- GI50 (SF-295): > 100 µM (inactive)
- GI50 (SF-539): > 100 µM (inactive)
- GI50 (SK-MEL-28): > 100 µM (inactive)
- GI50 (SK-MEL-2): > 100 µM (inactive)
- GI50 (SK-MEL-5): > 100 µM (inactive)
- GI50 (SK-OV-3): > 100 µM (inactive)
- GI50 (SN12C): > 100 µM (inactive)
- GI50 (SNB-19): > 100 µM (inactive)
- GI50 (SNB-75): 86.3 µM (inactive)
- GI50 (SNB-78): > 100 µM (inactive)
- GI50 (SW-620): > 100 µM (inactive)
- GI50 (U-251): > 100 µM (inactive)
- GI50 (UACC-257): > 100 µM (inactive)
- GI50 (UACC-62): 64.9 µM (inactive)
- GI50 (UO-31): > 100 µM (inactive)
- GI50 (XF498): > 64.4 µM (inactive)
